In patent publication US10233151B2, “Use of a novel 3-aryl-4-catechol-pyrrole-N-propanol compound and the derivatives thereof to treat cancer and diseases related to excessive angiogenesis” (Centre National de la Recherche Scientifique (CNRS), priority 2014, dated 2019):

Experiments:
HCT-116 cells [1] = assay: VEGF secretion by ELISA, HCT-116 culture supernatant; format: cell-based; details: HCT-116, normoxic and hypoxic (2% O2) conditions, concentrations of 5 to 50, 24 hours
Procedure: (§1) At the tenth day of embryonic development, glioblastoma cells (U87, 5×10^6 in 20 μL) were deposited on the chorioallantoic membrane. Two days after the graft, compound (1) at a concentration of 50 μM in a volume of 20 μL was deposited on the surface of the tumor formed. This treatment was repeated every 24 hours for 5 days. The control group was treated with solvent. The test was carried out on 20 eggs bearing glioblastoma tumors for each group. Images of the tumors were taken at day 3 (24 hours after treatment), at day 5 (3 days after treatment) and at day 7 (5 days after treatment) of tumor development. […] In order to determine the antiangiogenic mechanism of compound (1), VEGF was assayed by the ELISA method (Invitrogen, Novex technology), from the culture supernatant of U87 and HCT-116 cells, under normoxic and hypoxic conditions.

HCT-116 cells [2] = assay: Cell survival after SOD pretreatment; format: cell-based; details: HCT-116, SOD1 50 U/ml 1 hour pretreatment
Procedure: In order to determine the role of superoxide anion, produced by the cells, in the activation of compound (1), HCT-116 cells were pretreated for 1 hour with the enzyme superoxide dismutase (SOD1) at 50 U/ml, then treated with compound (1). The cells were analyzed to evaluate, firstly, cell survival in normoxia (72 hours of treatment) and in hypoxia (48 hours of treatment). Secondly, the formation of condensed chromatin in normoxia and the activity of caspases 3 and 7 in normoxia were evaluated.

[3] = EPR at 77 K, disappearance of the O2°- signal; details: KO2 2.5 mM in DMSO, dependent on concentration
Procedure: In order to follow the direct interaction of compound (1) with superoxide anion, solid potassium superoxide (KO2) was dissolved by sonication in DMSO (final concentration 2.5 mM), then mixed with compound (1) and immediately cooled by immersion in liquid nitrogen. EPR analysis at 77 K (liquid nitrogen) was carried out with a MiniScope MS 100 EPR spectrometer, operating at a frequency of 9.5 GHz (X-band) with the following parameters: magnetic field: 336.0±49.8 mT; sweep time: 20 s; sampling: 4096 points; modulation amplitude: 0.10 mT; modulation frequency: 100 kHz; gain: 900; microwave power: 6 mW.

[4] = tested on: caspases 3 and 7 in HL60 cells; assay: Caspase 3 and 7 activity (ApoONE test), HL60; format: cell-based; details: HL60, normoxia, 24 hours, 1 μM to 50 μM
Procedure: In order to specify whether compound (1) leads to apoptotic cell death, the activity of caspases 3 and 7, marker enzymes of apoptosis, was measured using the ApoONE test (Promega) in HCT-116, U87 and HL60 cells treated in normoxia for 24 hours with compound (1) at concentrations varying from 1 μM to 50 μM.

K562R cells = assay: Cell growth test (CellTiter-Blue), K562R; format: cell-based; details: Homo sapiens, K-562R, normoxia, 72 hours, read-out: IC50 (50% decrease in cell growth)
Procedure: (§2) The biological activity of compound (1), as well as that of its structural analogues, was studied in vitro on 7 different cancer cell lines: • HCT-116 (colorectal cancer) • U87 (glioblastoma) • K562 (myeloid leukemia) and K562 R • MDA-MB 231 (mammary adenocarcinoma) • MCF-7 (mammary adenocarcinoma) • A549 (pulmonary alveolar adenocarcinoma)
(§3) The cells selected for this study were incubated at 37° C. in the presence of compound (1) added in the culture medium at various concentrations and at various times. The set of experiments carried out made it possible to determine the degree of cytotoxicity of the compound tested (IC50), its capacity to induce cell death by apoptosis, in close dependence on extracellular superoxide anion for its activation.
(§4) The effect of compound (1) on the growth of HCT-116, U87, K562, K562R, MDA-MB 231, MCF-7 and A549 cells, cultured in normoxia, was evaluated using a cell growth test (CellTiter-Blue™ Cell Viability Assay, Promega).

U87 cells = assay: Cell growth test (CellTiter-Blue), U87; format: cell-based; details: Homo sapiens, U-87 MG; U87, normoxia, 72 hours; read-out: IC50 (50% decrease in cell growth)
Procedure: as §2, §3, §4

[5] = tested on: human glioblastoma (U87) grafted onto the chick embryo chorioallantoic membrane; assay: In ovo tumor angiogenesis, glioblastoma grafted onto chick embryo chorioallantoic membrane (CAM); format: in vivo; details: 50 μM, 20 μL on tumor every 24 hours
Procedure: The effect of compound (1) on tumor angiogenesis was evaluated using the in ovo model based on human tumor grafted onto chick embryo chorioallantoic membrane (CAM).
This experimental approach makes it possible in only a few days to evaluate the tumor's progression and level of vascularization.
as §1

HCT-116 cells [6] = assay: Cell growth test (CellTiter-Blue), HCT-116; format: cell-based; details: Homo sapiens, HCT-116, 72 h, HCT-116, normoxia, 72 hours; read-out: IC50 (50% decrease in cell growth)
Procedure: as §2
The cells selected for this study were incubated at 37° C. in the presence of compound (1) added in the culture medium at various concentrations and at various times. The set of experiments carried out made it possible to determine the degree of cytotoxicity of the compound tested (IC50), its capacity to induce cell death by apoptosis, in close dependence on extracellular superoxide anion for its activation. […]

HCT-116 cells [7] = assay: Cellular superoxide anion signal, DHE probe, HPLC-fluorimetry; format: cell-based; details: HCT-116, 50 μM for 3 hours, DHE 10 μM 20 minutes, normoxia
Procedure: The effect of compound (1) on superoxide anion was studied following the treatment of HCT-116 cells with 50 μM compound (1) for 3 hours and followed by incubation with the probe dihydroethidium (DHE) (10 μM) for 20 minutes. After removing the culture medium and washing with ice-cold DPBS, the cells were collected in 1 ml of cold DPBS. After centrifugation at 1000 g for 5 minutes, the pellet was taken up in 150 μl of PBS with Triton X100 (0.1%), shaken and centrifuged at 1000 g for 5 minutes. The supernatant was mixed with a 0.2 M solution of HClO4 in methanol, shaken and placed on ice for 2 hours. After centrifugation at 20000 g for 30 minutes, the supernatant is analyzed by HPLC coupled with fluorescence (λex=510 nm, λcm=595 nm). In the untreated cells (continuous line), the first peak at tR=5.16 minutes corresponds to the oxidized form “E+”, product of oxidation by peroxidases, and the second peak at tR =5.71 minutes to the oxidized form 2-OH E+, specific to the interaction with superoxide anion. In the treated cells, the first peak at tR=5.29 minutes corresponding to the oxidized form “E+” is increased, whereas the second peak at tR=5.71 minutes, corresponding to the oxidized form 2OH E+, specific to the interaction with superoxide anion, was suppressed. […] (FIG. 10).

OCCCn1cc(-c2ccccc2)c(-c2ccc(O)c(O)c2)c1 [compound (1)]
VEGF secretion (HCT-116 cells [1]): does not modify VEGF secretion
cytotoxic effect after SOD pretreatment (HCT-116 cells [2]; 10 μM, normoxia, 72 hours): completely blocks the cytotoxic effect
cytotoxic effect after SOD pretreatment (HCT-116 cells [2]; 25 μM, hypoxia, 48 hours): completely blocks the cytotoxic effect
EPR signal of superoxide anion [3]: decrease in the EPR signal of superoxide anion
activity of caspases 3 and 7 [4]: strongest activation
IC50 (K562R cells): 12.5 µM
IC50 (U87 cells): 7 µM
tumor vascularization ([5]; after 3 treatments (day 5), also day 7, vs control group): inhibition of tumor vascularization
growth of the treated tumor ([5]; day 7): significant inhibition of the growth of the treated tumor
IC50 (HCT-116 cells [6]): 7.5 µM
2-OH E+ signal (DHE oxidized by superoxide anion) (HCT-116 cells [7]): inhibition of the 2OH E+ signal
E+ signal (DHE oxidized by peroxidases or catalase) (HCT-116 cells [7]): increase in the E+ signal
